Test results taken from US7122314B2, “Methods for detecting vancomycin-resistant microorganisms and compositions therefor” (ID Biomedical Corporation, priority 2002, dated 2006).

Assays:
vanA and vanB genes = assay: Non-isotopic CPT-EIA VRE screen of enterococcal isolates; conditions: threshold 0.14 OD650; 27 isolates, five operators
Text: This following example describes a rapid single probe non-isotopic CPT assay for screening dual VRE genes (vanA and vanB) from Enterococcal isolates. The non-isotopic VRE assay, which combines CPT with an enzyme immunoassay (CPT-EIA), is schematically illustrated in FIG. 2. Because of the lack of homology between the vanA and vanB genes, it was not possible to find a common sequence that was suitable for a perfectly complementary CPT chimeric probe. It was necessary to design a probe that had two mismatches to vanA in the 5′ DNA arm and two mismatches to vanB in the 3′ DNA arm. In spite of the mismatches, the probe worked well to discriminate vanA and vanB from vanC and VSE isolates.
The dual detection single chimeric probe specific for detecting vanA and vanB genes are synthesized, fluoresceinated and biotinylated as described in Example 1. The purified thermostable RNase H is prepared as described in Example 3.
The sources of Enterococcal isolates and growth conditions are as described in Example 2. Lysis
The cells are lysed by placing a 1-μL loopful of culture growth in 50 μL of Lysis Reagent. […]
After cycling, 3 drops (˜100 μL) of Cycle Stop Reagent containing sheep polyclonal antifluorescein-horseradish peroxidase (HRP) conjugate and 0.16% SDS in Peroxidase Stabilizing Buffer (DAKO, Mississauga, ON) is added to the cycling reaction. […] The plate is read with a Vmax plate reader at OD650. […]

[1] = test system: VanA phenotype enterococci; conditions: inducible resistance; cited from earlier work

Compound	sensitivity (vanA and vanB genes)	specificity (vanA and vanB genes)	MIC [1]
5′-CAT GAT GTG TCG GTa aaa TCT GCA ATA GAG A-3′ (DNA CATGATGTGTCGGTAAAATCTGCAATAGAGA; scissile link, further chemistry not given here) [vanB110-m3]	98.7%	100%	–
CN[C@H](CC(C)C)C(=O)N[C@H]1C(=O)N[C@@H](CC(N)=O)C(=O)N[C@H]2C(=O)N[C@H]3C(=O)N[C@H](C(=O)N[C@H](C(=O)O)c4cc(O)cc(O)c4-c4cc3ccc4O)[C@H](O)c3ccc(c(Cl)c3)Oc3cc2cc(c3O[C@@H]2O[C@H](CO)[C@@H](O)[C@H](O)[C@H]2O[C@H]2C[C@](C)(N)[C@H](O)[C@H](C)O2)Oc2ccc(cc2Cl)[C@H]1O [vancomycin]	–	–	≥ 64 mg/L
teicoplanin	–	–	≥ 16 mg/L
